Measured values taken from ChEMBL document CHEMBL6127026, “Design, synthesis and anti-HBV activity study of novel HBV capsid assembly modulators” (Bioorg Med Chem Lett, 2024).

Experiments:
[1] = Selectivity index, ratio of CC50 for human HePAD38 cells to EC50 for hepatitis B virus infected in HePAD38 cells; format: toxicity, cell-based; conditions: read-out: Ratio CC50/EC50
[2] = Cytotoxicity against human HePAD38 cells by CCK8 assay; format: toxicity, cell-based
[3] = Octanol/water partition coefficient, log P of the compound; format: physicochemical
[4] = Cmax in male Beagle dog at 1.5 mg/kg, po administered via gavage and measured after 24 hrs by LC-MS/MS analysis; format: ADME, organism-based, Canis lupus familiaris; conditions: in vivo
[5] = AUC (0 to infinity) in male Beagle dog at 1.5 mg/kg, po administered via gavage and measured after 24 hrs by LC-MS/MS analysis; format: ADME, organism-based, Canis lupus familiaris; conditions: in vivo
Hepatitis B virus = experiment: Antiviral activity against Hepatitis B virus infected in human HePAD38 cells assessed as inhibition of viral DNA replication by qPCR analysis; format: functional, organism-based
[6] = Metabolic stability in human liver microsomes assessed as intrinsic clearance; format: ADME, Microsome; conditions: read-out: CLH
[7] = Metabolic stability in human plasma assessed as parent compound remaining measured after 30 mins; format: ADME, cell-free; conditions: read-out: Stability
[8] = Metabolic stability in human plasma assessed as parent compound remaining measured immediately; format: ADME, cell-free; conditions: read-out: Stability
[9] = Metabolic stability in human liver microsomes assessed as parent compound remaining measured after 60 mins in absence of NADPH co-factor; format: ADME, Microsome; conditions: read-out: Stability
[10] = Metabolic stability in human liver microsomes assessed as half-life; format: ADME, Microsome
[11] = Metabolic stability in human plasma assessed as parent compound remaining measured after 60 mins; format: ADME, cell-free; conditions: read-out: Stability
[12] = Metabolic stability in human plasma assessed as parent compound remaining measured after 120 mins; format: ADME, cell-free; conditions: read-out: Stability
Core antigen = Core antigen (Hepatitis B virus, UniProt Q03732); experiment: Inhibition of Hepatitis B virus Capsid protein assembly activity by fluorescence based analysis
[13] = Metabolic stability in human plasma assessed as parent compound remaining measured after 10 mins; format: ADME, cell-free; conditions: read-out: Stability
[14] = Metabolic stability in human liver assessed as intrinsic clearance; format: ADME, tissue-based; conditions: read-out: CLH
[15] = Metabolic stability in human liver microsomes assessed as parent compound remaining measured after 60 mins in presence of NADPH co-factor; format: ADME, Microsome; conditions: read-out: Stability
[16] = Metabolic stability in human plasma assessed as half-life; format: ADME, cell-free

Core antigen, sequence (Q03732 whole entry): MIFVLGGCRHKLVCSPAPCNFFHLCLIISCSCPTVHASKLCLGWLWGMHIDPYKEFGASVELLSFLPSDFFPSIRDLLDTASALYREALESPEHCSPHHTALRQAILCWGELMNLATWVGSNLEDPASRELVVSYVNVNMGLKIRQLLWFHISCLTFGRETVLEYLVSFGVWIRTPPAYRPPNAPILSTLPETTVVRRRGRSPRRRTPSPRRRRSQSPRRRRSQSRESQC

SMILES	selectivity ratio [1]	CC50 [2] [µM]	EC50 (Hepatitis B virus) [µM]	other results
O=C(Nc1cc(F)c(F)c(F)c1)c1ccc(F)c(S(=O)(=O)N2CCC(O)CC2)c1	88.4	20.8	0.29	logP [3]: 1.75; Cmax [4]: 560 ng/mL; AUC(0-inf) [5]: 3500 ng·h/mL
O=C(c1cc(S(=O)(=O)NC2CCCC2)cc2c1OCCO2)N1CCC(O)CC1	–	> 100	> 20	–
O=C(Nc1cc(F)c(F)c(F)c1)c1cc(S(=O)(=O)NC2CCCC2)cc2c1OCCO2	> 419	> 100	0.24	microsomal CLint [6]: 99.8 µL/min/mg; remaining at 0.5 h [7]: 112%; remaining at 0 min [8]: 100%; remaining at 1 h [9]: 84.1%; logP ([3]; read-out: logP): 1.59; half-life [10]: 13.9 min; remaining at 1 h [11]: 115%; remaining at 2 h [12]: 99.4%; IC50 (Core antigen): 1.45 µM; remaining at 10 min [13]: 115%; CLint scaled [14]: 89.8 mL/min/kg; remaining at 1 h [15]: 5%; half-life [16]: > 289 min
N#Cc1cc(NC(=O)c2cc(S(=O)(=O)NC3CCCC3)cc3c2OCCO3)ccc1F	> 65.3	> 100	1.53	–
O=C(Nc1cc(F)cc(F)c1)c1cc(S(=O)(=O)NC2CCCC2)cc2c1OCCO2	> 232	> 100	0.43	–
O=C(NC1CCCC1)c1cc(S(=O)(=O)NC2CCCC2)cc2c1OCCO2	–	> 100	> 20	–
O=C(Nc1ccc(F)cc1)c1cc(S(=O)(=O)NC2CCCC2)cc2c1OCCO2	> 98.2	> 100	1	–
O=C(Nc1ccc(F)c(F)c1)c1cc(S(=O)(=O)NC2CCCC2)cc2c1OCCO2	89	81.4	0.91	–
O=C(Nc1ccc(F)c(Cl)c1)c1cc(S(=O)(=O)NC2CCCC2)cc2c1OCCO2	95.5	48.2	0.5	IC50 (Core antigen): 4.22 µM
O=C(Nc1ccc(F)c(Cl)c1)c1cc(S(=O)(=O)Nc2nccs2)cc2c1OCCO2	–	> 100	> 20	–
Cc1cc(NC(=O)c2cc(S(=O)(=O)NC3CCCC3)cc3c2OCCO3)ccc1F	104	51	0.49	–
O=C(Nc1ccc(F)c(Cl)c1)c1cc(S(=O)(=O)Nc2ccsc2)cc2c1OCCO2	> 116	> 100	0.86	–
O=C(Nc1ccc(F)c(Cl)c1)c1cc2c(c(S(=O)(=O)Nc3ccc(F)c(Cl)c3)c1)OCCO2	1.46	6.64	4.56	–
O=C(NC1CCCC1)c1cc2c(c(S(=O)(=O)Nc3cc(F)c(F)c(F)c3)c1)OCCO2	2.79	20.5	7.36	–
O=C(NC1CCCC1)c1cc(S(=O)(=O)Nc2cc(F)c(F)c(F)c2)cc2c1OCCO2	–	> 100	> 20	–
O=C(NC1CCCC1)c1cc(S(=O)(=O)Nc2ccc(F)c(Cl)c2)cc2c1OCCO2	> 93	> 100	1.07	–
O=C(NC1CCCC1)c1cc2c(c(S(=O)(=O)Nc3ccc(F)c(Cl)c3)c1)OCCO2	–	> 100	> 20	–
O=C(O)Cc1ccccc1Nc1c(Cl)cccc1Cl [DICLOFENAC]	–	–	–	CLint scaled [14]: 232 mL/min/kg
CC(C)[N+](C)(CCOC(=O)C1c2ccccc2Oc2ccccc21)C(C)C.[Br-] [PROPANTHELINE BROMIDE]	–	–	–	remaining at 0.5 h [7]: 8.3%; remaining at 1 h [11]: 0.4%; remaining at 10 min [13]: 52%; half-life [16]: 7.4 min
